Experimental data published in ChEMBL document CHEMBL3856199, “Melanoma-targeted delivery system (part 2): Synthesis, radioiodination and biological evaluation in B16F0 bearing mice” (Eur J Med Chem, 2016).

How the values were obtained:
Details in all cases: in vivo
[1] = Drug uptake in liver of C57BL/6J mouse implanted with mouse B16F0 cells at 3.7 MBq, iv measured at 3 hrs post injection by gamma counting analysis; format: ADME, organism-based
[2] = Drug uptake in liver of C57BL/6J mouse implanted with mouse B16F0 cells at 3.7 MBq, iv measured at 6 hrs post injection by gamma counting analysis; format: ADME, organism-based
[3] = Drug uptake in kidney of C57BL/6J mouse implanted with mouse B16F0 cells at 3.7 MBq, iv measured at 1 hr post injection by gamma counting analysis; format: ADME, organism-based
[4] = Drug uptake in kidney of C57BL/6J mouse implanted with mouse B16F0 cells at 3.7 MBq, iv measured at 6 hrs post injection by gamma counting analysis; format: ADME, organism-based
[5] = Drug uptake in kidney of C57BL/6J mouse implanted with mouse B16F0 cells at 3.7 MBq, iv measured at 24 hrs post injection by gamma counting analysis; format: ADME, organism-based
[6] = Drug uptake in stomach of C57BL/6J mouse implanted with mouse B16F0 cells at 3.7 MBq, iv measured at 1 hr post injection by gamma counting analysis; format: ADME, organism-based
[7] = Drug uptake in stomach of C57BL/6J mouse implanted with mouse B16F0 cells at 3.7 MBq, iv measured at 6 hrs post injection by gamma counting analysis; format: ADME, organism-based
[8] = Drug uptake in stomach of C57BL/6J mouse implanted with mouse B16F0 cells at 3.7 MBq, iv measured at 24 hrs post injection by gamma counting analysis; format: ADME, organism-based
[9] = Drug uptake in intestine of C57BL/6J mouse implanted with mouse B16F0 cells at 3.7 MBq, iv measured at 1 hr post injection by gamma counting analysis; format: ADME, organism-based
[10] = Drug uptake in thyroid/submaxillary glands of C57BL/6J mouse implanted with mouse B16F0 cells at 3.7 MBq, iv measured at 6 hrs post injection by gamma counting analysis; format: ADME, organism-based, Submaxillary gland/Thyroid
[11] = Drug uptake in thyroid/submaxillary glands of C57BL/6J mouse implanted with mouse B16F0 cells at 3.7 MBq, iv measured at 72 hrs post injection by gamma counting analysis; format: ADME, organism-based, Submaxillary gland/Thyroid
[12] = Drug uptake in eyes of C57BL/6J mouse implanted with mouse B16F0 cells at 3.7 MBq, iv measured at 3 hrs post injection by gamma counting analysis; format: ADME, organism-based, Eye
[13] = Drug uptake in eyes of C57BL/6J mouse implanted with mouse B16F0 cells at 3.7 MBq, iv measured at 6 hrs post injection by gamma counting analysis; format: ADME, organism-based, Eye
[14] = Drug uptake in eyes of C57BL/6J mouse implanted with mouse B16F0 cells at 3.7 MBq, iv measured at 72 hrs post injection by gamma counting analysis; format: ADME, organism-based, Eye
[15] = Drug uptake in blood of C57BL/6J mouse implanted with mouse B16F0 cells at 3.7 MBq, iv measured at 1 hr post injection by gamma counting analysis; format: ADME, organism-based
[16] = Drug uptake in blood of C57BL/6J mouse implanted with mouse B16F0 cells at 3.7 MBq, iv measured at 6 hrs post injection by gamma counting analysis; format: ADME, organism-based
[17] = Drug uptake in blood of C57BL/6J mouse implanted with mouse B16F0 cells at 3.7 MBq, iv measured at 24 hrs post injection by gamma counting analysis; format: ADME, organism-based
[18] = Drug uptake in muscles of C57BL/6J mouse implanted with mouse B16F0 cells at 3.7 MBq, iv measured at 1 hr post injection by gamma counting analysis; format: ADME, organism-based, Muscle tissue
[19] = Drug uptake in muscles of C57BL/6J mouse implanted with mouse B16F0 cells at 3.7 MBq, iv measured at 3 hrs post injection by gamma counting analysis; format: ADME, organism-based, Muscle tissue
[20] = Ratio of drug uptake in tumor to muscle in C57BL/6J mouse implanted with mouse B16F0 cells at 3.7 MBq, iv measured at 3 hrs post injection; format: ADME, organism-based
[21] = Ratio of drug uptake in tumor to muscle in C57BL/6J mouse implanted with mouse B16F0 cells at 3.7 MBq, iv measured at 24 hrs post injection; format: ADME, organism-based
[22] = Ratio of drug uptake in tumor to muscle in C57BL/6J mouse implanted with mouse B16F0 cells at 3.7 MBq, iv measured at 72 hrs post injection; format: ADME, organism-based
[23] = Drug level in urine of C57BL/6J mouse implanted with mouse B16F0 cells treated with [125I]IUdR-SS-MTP at 3.7 MBq, iv measured at 15 to 60 mins post injection by RP-HPLC analysis; format: ADME, organism-based
[24] = Drug level in blood of C57BL/6J mouse implanted with mouse B16F0 cells treated with [125I]IUdR-SS-MTP at 3.7 MBq, iv measured at 15 to 60 mins post injection by RP-HPLC analysis; format: ADME, organism-based
[25] = Drug level in tumor of C57BL/6J mouse implanted with mouse B16F0 cells treated with [125I]IUdR-SS-MTP at 3.7 MBq, iv measured at 15 to 60 mins post injection by RP-HPLC analysis; format: ADME, organism-based, Neoplasm

Row | Drug uptake [1] | Drug uptake [2] | Drug uptake [3] | Drug uptake [4] | Drug uptake [5] | Drug uptake [6] | Drug uptake [7] | Drug uptake [8] | Drug uptake [9] | Drug uptake [10] | Drug uptake [11] | Drug uptake [12] | Drug uptake [13] | Drug uptake [14] | Drug uptake [15] | Drug uptake [16] | Drug uptake [17] | Drug uptake [18] | Drug uptake [19] | Ratio [20] | Structure (SMILES) | further results
1 | 1.23 % ID/g | 0.47 % ID/g | 1.99 % ID/g | 0.87 % ID/g | 0.2 % ID/g | 19.21 % ID/g | 6.67 % ID/g | 1.01 % ID/g | 2.51 % ID/g | 26.6 % ID/g | 11.36 % ID/g | 0.85 % ID/g | 0.28 % ID/g | 0.08 % ID/g | 2.14 % ID/g | 1 % ID/g | 0.13 % ID/g | 0.47 % ID/g | 0.51 % ID/g | 5.59 | CCN(CC)CCNC(=O)c1cnc2cc(NC(=O)COc3ccc(SSCCOC(=O)O[C@H]4C[C@H](n5cc([125I])c(=O)[nH]c5=O)O[C@@H]4CO)cc3)ccc2n1 | Ratio [21]: 18.24; Ratio [22]: 5.28
2 | 0.63 % ID/g | 0.24 % ID/g | 2.57 % ID/g | 0.38 % ID/g | 0.12 % ID/g | 18.09 % ID/g | 4.19 % ID/g | 0.62 % ID/g | 1.62 % ID/g | 14.26 % ID/g | 4.17 % ID/g | 0.43 % ID/g | 0.24 % ID/g | 0.03 % ID/g | 3.17 % ID/g | 0.52 % ID/g | 0.07 % ID/g | 1.13 % ID/g | 1.06 % ID/g | 3.75 | O=c1[nH]c(=O)n([C@H]2C[C@H](O)[C@@H](CO)O2)cc1[125I] | Ratio [21]: 24.35; Ratio [22]: 14.58; Drug metabolism [23]: Metabolite_Detected; Drug metabolism [24]: Metabolite_Detected; Drug metabolism [25]: Metabolite_Detected
